Test results published in PubChem BioAssay (NCI).
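Compound exposure: 48 hours, 5 concentrations, 96-well plates. TGI marks complete inhibition of growth.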 Where a SMILES comes first, the peptide text is derived from it. The star is where a group is joined. Boc = CC(C)(C)OC(=O)*

Key:
Assay in all cases: growth of human tumour cells (NCI), 48 h
BT-549 breast = system: BT-549 breast
T-47D breast = system: T-47D breast
TK-10 renal = system: TK-10 renal
HCT-116 colon = system: HCT-116 colon
NCI-H23 lung = system: NCI-H23 lung
OVCAR-8 ovarian = system: OVCAR-8 ovarian
OVCAR-5 ovarian = system: OVCAR-5 ovarian
SR leukemia = system: SR leukemia
SF-539 CNS = system: SF-539 CNS
SK-MEL-28 melanoma = system: SK-MEL-28 melanoma
MALME-3M melanoma = system: MALME-3M melanoma
LOX IMVI melanoma = system: LOX IMVI melanoma
NCI-H226 lung = system: NCI-H226 lung
PC-3 prostate = system: PC-3 prostate
HL-60(TB) leukemia = system: HL-60(TB) leukemia
SF-295 CNS = system: SF-295 CNS
SK-MEL-5 melanoma = system: SK-MEL-5 melanoma
MDA-MB-231 breast = system: MDA-MB-231 breast
RXF 393 renal = system: RXF 393 renal
ACHN renal = system: ACHN renal
HS 578T breast = system: HS 578T breast
SF-268 CNS = system: SF-268 CNS
NCI/ADR-RES ovarian = system: NCI/ADR-RES ovarian
EKVX NSCLC = system: EKVX NSCLC
OVCAR-3 ovarian = system: OVCAR-3 ovarian
NCI-H460 lung = system: NCI-H460 lung
NCI-H522 lung = system: NCI-H522 lung
MDA-N = system: MDA-N
UO-31 renal = system: UO-31 renal
KM12 colon = system: KM12 colon
HT29 colon = system: HT29 colon
IGROV1 ovarian = system: IGROV1 ovarian
SNB-19 CNS = system: SNB-19 CNS
UACC-257 melanoma = system: UACC-257 melanoma
OVCAR-4 ovarian = system: OVCAR-4 ovarian
786-0 renal = system: 786-0 renal
M14 melanoma = system: M14 melanoma
U251 CNS = system: U251 CNS
MCF7 breast = system: MCF7 breast
SK-MEL-2 melanoma = system: SK-MEL-2 melanoma
COLO 205 colon = system: COLO 205 colon
MOLT-4 leukemia = system: MOLT-4 leukemia
SN12C renal = system: SN12C renal
DU-145 prostate = system: DU-145 prostate
A498 renal = system: A498 renal
UACC-62 melanoma = system: UACC-62 melanoma
A549 NSCLC = system: A549 NSCLC
SNB-75 CNS = system: SNB-75 CNS
K-562 leukemia = system: K-562 leukemia
SK-OV-3 ovarian = system: SK-OV-3 ovarian
HOP-92 NSCLC = system: HOP-92 NSCLC
HOP-62 NSCLC = system: HOP-62 NSCLC
HCT-15 colon = system: HCT-15 colon
SW-620 colon = system: SW-620 colon
RPMI-8226 leukemia = system: RPMI-8226 leukemia
HCC-2998 colon = system: HCC-2998 colon
CCRF-CEM leukemia = system: CCRF-CEM leukemia
CAKI-1 renal = system: CAKI-1 renal
MDA-MB-435 = system: MDA-MB-435

N/C(=N\S(=O)(=O)c1ccc(S(=O)(=O)c2ccccc2)s1)Nc1ccc(Cl)cc1 gave a TGI (BT-549 breast) of 46 µM, a TGI (T-47D breast) of over 100 µM and a TGI (TK-10 renal) of 51.1 µM. The TGI (HCT-116 colon) was 32.9 µM, the TGI (NCI-H23 lung) was 90.4 µM and the TGI (OVCAR-8 ovarian) was 45.1 µM. It also gave a TGI (OVCAR-5 ovarian) of 97.6 µM, a TGI (SR leukemia) of 61.9 µM and a TGI (SF-539 CNS) of 84.3 µM. It also gave a TGI (SK-MEL-28 melanoma) of 44 µM, a TGI (MALME-3M melanoma) of 47.9 µM and a TGI (LOX IMVI melanoma) of 32.4 µM. The TGI (NCI-H226 lung) was 88.6 µM, the TGI (PC-3 prostate) was 29.6 µM and the TGI (HL-60(TB) leukemia) was 53.8 µM. The TGI (SF-295 CNS) was 47 µM, the TGI (SK-MEL-5 melanoma) was 32.5 µM and the TGI (MDA-MB-231 breast) was 28.8 µM. For the same molecule, the TGI (RXF 393 renal) was over 100 µM, the TGI (ACHN renal) was 71.4 µM and the TGI (HS 578T breast) was 81.5 µM. The TGI (SF-268 CNS) was 47.7 µM, the TGI (NCI/ADR-RES ovarian) was 45.1 µM and the TGI (EKVX NSCLC) was 40.4 µM. The TGI (OVCAR-3 ovarian) was 79.6 µM, the TGI (NCI-H460 lung) was 33.8 µM and the TGI (NCI-H522 lung) was 28.9 µM. It also gave a TGI (MDA-N) of 39.1 µM, a TGI (UO-31 renal) of 40 µM and a TGI (KM12 colon) of over 100 µM. For the same molecule, the TGI (HT29 colon) was 45.1 µM, the TGI (IGROV1 ovarian) was 31.7 µM and the TGI (SNB-19 CNS) was over 100 µM. For the same molecule, the TGI (UACC-257 melanoma) was 29.1 µM, the TGI (OVCAR-4 ovarian) was 94.8 µM and the TGI (786-0 renal) was 41.5 µM. The TGI (M14 melanoma) was 37.3 µM, the TGI (U251 CNS) was 27.8 µM and the TGI (MCF7 breast) was 35.6 µM. The TGI (SK-MEL-2 melanoma) was 31.6 µM, the TGI (COLO 205 colon) was 39.4 µM and the TGI (MOLT-4 leukemia) was 59.6 µM. For the same molecule, the TGI (SN12C renal) was 36.3 µM, the TGI (DU-145 prostate) was 55.3 µM and the TGI (A498 renal) was 34.7 µM. It also gave a TGI (UACC-62 melanoma) of 24.4 µM, a TGI (A549 NSCLC) of over 100 µM and a TGI (SNB-75 CNS) of over 100 µM. It also gave a TGI (K-562 leukemia) of 88.2 µM, a TGI (SK-OV-3 ovarian) of over 100 µM and a TGI (HOP-92 NSCLC) of 39.1 µM. The TGI (HOP-62 NSCLC) was 39.3 µM, the TGI (HCT-15 colon) was 35.1 µM and the TGI (SW-620 colon) was 44.8 µM. For the same molecule, the TGI (RPMI-8226 leukemia) was 88.7 µM.
With COC(=O)C(Cc1c[nH]c2ccccc12)NC(=O)C(Cc1c[nH]c2ccccc12)NC(=O)C(Cc1c[nH]c2ccccc12)NC(=O)C(Cc1c[nH]c2ccccc12)NC(=O)C(Cc1c[nH]c2ccccc12)NC(=O)C(Cc1c[nH]c2ccccc12)NC(=O)OC(C)(C)C (configuration not stated) (Boc-WWWWWW-OMe; configuration not given here) the TGI (BT-549 breast) was over 100 µM, the TGI (T-47D breast) was over 100 µM and the TGI (TK-10 renal) was over 100 µM. For the same molecule, the TGI (HCT-116 colon) was over 100 µM, the TGI (NCI-H23 lung) was over 100 µM and the TGI (OVCAR-8 ovarian) was over 100 µM. It also gave a TGI (OVCAR-5 ovarian) of over 100 µM, a TGI (SR leukemia) of over 100 µM and a TGI (SK-MEL-28 melanoma) of 31.1 µM. For the same molecule, the TGI (MALME-3M melanoma) was over 100 µM, the TGI (LOX IMVI melanoma) was over 100 µM and the TGI (NCI-H226 lung) was over 100 µM. It also gave a TGI (PC-3 prostate) of over 100 µM, a TGI (HL-60(TB) leukemia) of over 100 µM and a TGI (SK-MEL-5 melanoma) of 70.5 µM. It also gave a TGI (HCC-2998 colon) of over 100 µM, a TGI (MDA-MB-231 breast) of over 100 µM and a TGI (ACHN renal) of over 100 µM. It also gave a TGI (SF-268 CNS) of over 100 µM, a TGI (OVCAR-3 ovarian) of over 100 µM and a TGI (NCI-H460 lung) of over 100 µM. For the same molecule, the TGI (CCRF-CEM leukemia) was over 100 µM, the TGI (NCI-H522 lung) was over 100 µM and the TGI (MDA-N) was over 100 µM. For the same molecule, the TGI (UO-31 renal) was over 100 µM, the TGI (HT29 colon) was over 100 µM and the TGI (IGROV1 ovarian) was over 100 µM. The TGI (SNB-19 CNS) was over 100 µM, the TGI (UACC-257 melanoma) was over 100 µM and the TGI (OVCAR-4 ovarian) was over 100 µM. For the same molecule, the TGI (CAKI-1 renal) was over 100 µM, the TGI (786-0 renal) was over 100 µM and the TGI (U251 CNS) was over 100 µM. For the same molecule, the TGI (MCF7 breast) was over 100 µM, the TGI (SK-MEL-2 melanoma) was over 100 µM and the TGI (MOLT-4 leukemia) was over 100 µM. For the same molecule, the TGI (SN12C renal) was over 100 µM, the TGI (DU-145 prostate) was over 100 µM and the TGI (MDA-MB-435) was over 100 µM. It also gave a TGI (UACC-62 melanoma) of over 100 µM, a TGI (A549 NSCLC) of over 100 µM and a TGI (SNB-75 CNS) of over 100 µM. It also gave a TGI (K-562 leukemia) of over 100 µM, a TGI (HOP-62 NSCLC) of over 100 µM and a TGI (HCT-15 colon) of over 100 µM. The TGI (SW-620 colon) was over 100 µM and the TGI (RPMI-8226 leukemia) was over 100 µM.
